Earlier results, collected in patent US20040058899A1, “Use of epothilones and analogs in conjunction with ophthalmic surgery” (priority 2002, published 2004).

Tested on: tumor-implanted mice
Settings: for toxic effects / animal deaths: comparably effective doses

SMILES	toxic effects / animal deaths	tumor regression
COc1cccc2c1C(=O)c1c(O)c3c(c(O)c1C2=O)C[C@@](O)(C(=O)CO)C[C@@H]3O[C@H]1C[C@H](N)[C@H](O)[C@H](C)O1 [adriamycin]	caused some animal deaths	–
C/C1=C/C[C@@H](/C(C)=C/c2csc(C)n2)OC(=O)C[C@H](O)C(C)(C)C(=O)[C@H](C)[C@@H](O)[C@@H](C)CCC1 [deoxyepothilone B]	without any noticeable toxic effects	complete tumor regression
CC(=O)O[C@H]1C(=O)[C@@]2(C)[C@H]([C@H](OC(=O)c3ccccc3)[C@]3(O)C[C@H](OC(=O)[C@H](O)[C@@H](NC(=O)c4ccccc4)c4ccccc4)C(C)=C1C3(C)C)[C@]1(OC(C)=O)CO[C@@H]1C[C@@H]2O [paclitaxel]	caused some animal deaths	–
